In patent US20030039689A1, “Polymer-based, sustained release drug delivery system” (priority 2001, published 2003):

Tests used:
[1] = Release test from Chronoflex polymer/TC-32 coated HPLC inserts into phosphate buffer; assay type: physicochemical
Experimental: A mixture of 3.3 gm Chronoflex C(65D) (Lot# CTB-G25B-1234) dispersion containing 0.3 gm of Chronoflex C(65D) and 2.2 gm Chronoflex C(55D) (Lot# CTB-121B-1265) dispersion containing 0.2 gm of Chronoflex C (55D), both in dimethyl acetamide (DMAC) (1:10, w/w) was prepared by mixing the two dispersions together. To this mixture, 6.0 gm of tetrahydrofurane (HPLC grade) were added and mixed. The final mixture was not a clear solution. Then 101.5 mg of a co-drug of 5-fluorouracil (5FU) and triamcinolone acetonide (TA) (the co-drug being defmed as “TC-32”) was added and dissolved into the polymer solution.
Ten (10) HPLC inserts were then coated with the polymer/TC-32 solution by dipping, which was then followed by air-drying under ambient temperature. The coating and air-drying process was repeated four (4) times (5 times total) until a total of about 10 mg of polymer/TC-32 was applied to each insert. The inserts were then placed in an oven at 80° C. for two hour to remove the residue of the solvent.

[2] = Release test from Chronoflex polymer/TC-32 dip-coated stents into phosphate buffer; assay type: physicochemical; settings: phosphate buffer pH 7.4, 37° C., HPLC
Experimental: To 5.0 gm of stirred dimethyl acetamide (DMAC), 300 mg of Chronoflex C(65D) (Lot# CTB-G25B-1234) and 200 mg of Chronoflex C(55D) (Lot# CTB-121B-1265) were added. The polymer was slowly dissolved in DMAC (about 4 hours). Then 5.0 gm of THF was added to the polymer dispersion. The mixture was not a clear solution. Then 100.9 mg of TC-32 was added and dissolved in the mixture.
Three (3) Stents, supplied by Guidant Corp, were coated then with the polymer/TC-32 solution by dipping and followed by air-drying under ambient temperature. The coating and air-drying process was repeated a few times till a total of about 2.0 mg of polymer/TC-32 were applied to each stent. The coated stents were air-dried under ambient temperature in a biological safety cabinet over night. The stents were then vacuum dried at 80° C. for two hour to remove the residue of the solvent. […] Samples were taken daily, and the entire media was replaced with a fresh one at each sampling time.

[3] = Release from TC-32 coated stents, non-implanted and explanted from swine, into phosphate buffer; assay type: physicochemical, common swine; settings: stents harvested on study day 5 from swine LAD and non-implanted stents; 0.1 M phosphate buffer
Experimental: Polyurethane (1.008 gm) was added to 50.0 gm of tetrahydrofuran (THF). The mixture was stirred overnight to dissolve the polymer. 5.0 gm of the polymer solution was diluted with 10.0 gm of THF. 150.2 mg of a co-drug of 5-fluorouracil (5FU) and triamcinolone acetonide (TA) (the co-drug being defined as “TC-32”) was added to the polymer solution and dissolved. The coating solution was prepared with 60% codrug loading. A 13% codrug loaded coating solution was also prepared. Bare stents (Tetra, Guidant, Lot# 1092154, 13 mm Tetra) were washed with isopropanol, air-dried, and spray coated with the coating solution using a precision airbrush. The coating was repeated until approximately 1.0 mg of total coating had been applied to each stent. The coated stents were vacuum dried for two hours at 50° C. to remove solvent residue, then subjected to plasma treatment and gamma-irradiation.
Co-drug coated stents were test in two groups. […] Samples were taken periodically and the concentration of co-drug in the buffer was tested by HPLC. The entire release media was replaced after each sample.
Group Two stents were placed in vivo. Three common swine had TC-32 coated stents implanted into the left anterior descending (LAD) coronary artery on study day 1. […] The amount of each drug released into the media was determined by HPLC.

[4] = Effect of gamma irradiation and plasma treatment on drug release from coated stents; assay type: physicochemical; settings: stents with or without plasma treatment and gamma-irradiation; 0.1 M phosphate buffer pH 7.4
Experimental: FIGS. 11A and 11B are graphs showing the effect of gamma irradiation and plasma treatment on drug release. […] Samples were taken periodically and the entire release media was replaced after each sample. The amount of each drug released into the media was determined by HPLC.

[5] = Release test from PVA coated glass plates into phosphate buffer, HPLC; assay type: physicochemical; settings: 0.1 M phosphate buffer pH 7.4, 37° C., intact compound plus constituents
[6] = Release test from silicone coated glass plates into phosphate buffer, HPLC
Text: Samples were taken daily, and the entire release media was replaced with fresh media at each sampling time. […] Again, the data represent both intact and constituents of the inventive compound.

| SMILES | half-life in buffer ([1]; 0.1 m phosphate buffer, pH 7.4, 37° C.) | intact codrug in the release media ([1]; coated HPLC inserts, phosphate buffer pH 7.4, 37° C., HPLC) | intact codrug in the release media [2] | intact codrug in release media [3] | intact codrug in release media [4] | release rate (slope of total cumulative release curve) [5] | release rate (slope of total cumulative release curve) ([6]; silicone coated glass plates, 0.1 M phosphate buffer pH 7.4, 37° C., intact compound plus constituents) | naproxen detected in release media ([6]; silicone coated glass plates, up to day 6, phosphate buffer pH 7.4, 37° C.) | TC-112 detected in buffer ([6]; silicone coating, up to day 6) | TC-112 hydrolyzed (calculated from naproxen detected) ([6]; silicone coating, up to day 6) | total TC-112 released (detected plus hydrolyzed) ([6]; silicone coating, up to day 6) |
| --- | --- | --- | --- | --- | --- | --- | --- | --- | --- | --- | --- |
| CC1(C)O[C@@H]2CC3C4CCC5=CC(=O)C=CC5(C)[C@@]4(F)[C@@H](O)CC3(C)[C@]2(C(=O)COC(=O)OCn2cc(F)c(=O)[nH]c2=O)O1 (some centres unmarked) [TC-32] | short | no TC-32 was detectable | No TC-32 was detectable | not detectable | not detectable | – | – | – | – | – | – |
| COc1ccc2cc(C(C)C(=O)OCn3cc(F)c(=O)[nH]c3=O)ccc2c1 (centres unmarked) [TC-112] | – | – | – | – | – | 10 µg/day | 13.3 µg/day | 43.9 mg | 51.4 mg | 71.0 mg | 122.4 mg |
